Here are results for 9 compounds from US20110020460A1, “GPR 119 MODULATORS” (Pfizer Inc., priority 2009, published 2011).

For assay [1], the target named is T1, human GPR119 (Homo sapiens, UniProt Q8TDV5).
T1 construct: host or cells: HEK293-CRE-beta-lactamase
T1 sequence (Q8TDV5 1-335): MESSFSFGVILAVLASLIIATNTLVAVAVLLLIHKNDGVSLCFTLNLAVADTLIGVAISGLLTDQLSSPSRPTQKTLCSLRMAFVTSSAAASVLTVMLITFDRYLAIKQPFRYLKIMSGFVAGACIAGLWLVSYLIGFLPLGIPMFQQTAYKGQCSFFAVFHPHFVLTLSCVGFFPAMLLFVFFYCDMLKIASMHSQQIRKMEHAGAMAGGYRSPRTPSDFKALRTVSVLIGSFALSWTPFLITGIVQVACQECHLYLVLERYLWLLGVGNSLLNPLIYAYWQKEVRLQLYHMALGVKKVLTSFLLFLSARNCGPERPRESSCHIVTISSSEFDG
As to the kind of experiment: cAMP HTRF functional assay (hGPR119 HEK-CRE beta-lactamase cells). The format is cell-based. The following applies: one value per run; for EC50: hGPR119 HEK-CRE beta-lactamase cells, HTRF cAMP; for Intrinsic Activity* (cAMP) / Emax: percent of maximal activity relative to standard GPR119 agonist (WO2005121121) at 10 μM; for Emax: read-out: Intrinsic Activity* (cAMP). (In general: In TR-FRET formats the signal depends on donor and acceptor labels being close together.)

Assay [2] concerns the target T1, human GPR119. As to the kind of experiment: GPR119 radioligand binding assay ([3H]-Compound A or [3H]-Compound B, HEK 293FT membranes). The note with it: Ki from IC50 by Cheng-Prusoff; one value per run; read-out: Human Binding Ki.
In assay [3] the target is T2, human GPR119 (Homo sapiens, UniProt Q8TDV5).
T2 construct: host or cells: U2OS
Description: beta-arrestin functional assay (DiscoverX PathHunter U2OS hGPR119 beta-arrestin cells). The format is cell-based. The note with it: for EC50: read-out: Human B-arrestin Functional EC50; for Emax: U2OS, read-out: Intrinsic Activity* (B-arrestin). The protocol:
GPR119 agonist activity was also determined with a cell-based assay utilizing DiscoverX PathHunter β-arrestin cell assay technology and their U2OS hGPR119 β-arrestin cell line (DiscoverX Cat #93-0356C3). In this assay, agonist activation is determined by measuring agonist-induced interaction of […] with activated GPR119. A small, 42 amino acid enzyme fragment, called ProLink was appended to the C-terminus of GPR119. Arrestin was fused to the larger enzyme fragment, termed EA (Enzyme Acceptor). Activation of GPR119 stimulates binding of arrestin and forces the complementation of the two enzyme fragments, resulting in formation of a functional β-galactosidase enzyme capable of hydrolyzing substrate and generating a chemiluminescent signal.
EC50 determinations were made from an agonist-response curves analyzed with a curve fitting program using a 4-parameter logistic dose response equation.
T2 sequence (P32121 whole entry partner, one chain of several): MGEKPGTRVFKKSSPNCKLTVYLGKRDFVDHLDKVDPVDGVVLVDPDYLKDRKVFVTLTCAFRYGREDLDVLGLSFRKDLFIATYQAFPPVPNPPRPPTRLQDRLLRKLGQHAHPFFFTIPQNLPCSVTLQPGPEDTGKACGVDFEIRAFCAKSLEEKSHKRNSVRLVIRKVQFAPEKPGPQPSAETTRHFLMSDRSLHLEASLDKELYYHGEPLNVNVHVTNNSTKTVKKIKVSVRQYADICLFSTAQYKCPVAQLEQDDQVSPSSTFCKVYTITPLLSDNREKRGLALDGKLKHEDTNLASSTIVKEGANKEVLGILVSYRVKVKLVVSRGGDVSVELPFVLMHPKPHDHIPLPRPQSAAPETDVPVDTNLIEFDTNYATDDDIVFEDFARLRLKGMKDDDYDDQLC

Assay [4] has as its target T1, human GPR119. As to the kind of experiment: beta-lactamase reporter functional assay (hGPR119 HEK293-CRE beta-lactamase cells). It counts as cell-based. The following applies: one value per run; for EC50: hGPR119 HEK293-CRE beta-lactamase cells, read-out: Human B-lactamase Functional EC50; for Intrinsic Activity* (B-lactamase) / Emax: percent of maximal activity relative to standard GPR119 agonist (WO2005121121) at 10 microM; for Emax: read-out: Intrinsic Activity* (B-lactamase).

Setting [5] is: U2OS hGPR119 beta-arrestin cells, one value per run.
[6] abbreviates: percent of maximal activity relative to standard GPR119 agonist (WO2005121121) at 10 microM, one value per run.
The mark [7] stands for this setting: **curve was extrapolated to 100% to calculate an EC50.

Several values for one entry are separate records, joined by “and”; a condition that tells them apart may be missing. Equal values may be shown once.

Broadly, the EC50 is the concentration at which the effect is half-maximal. One may read the Ki as a measure of affinity in units of concentration, obtained from inhibition or displacement.

As to `CC1(OC(=O)N2CCC(n3ncc(COc4c(F)ccc(F)c4F)c3C#N)CC2)CC1` [Example 31, 1-Methylcyclopropyl 4-{5-cyano-4-[(2,3,6-trifluorophenoxy)methyl]-1H-pyrazol-1-yl}piperidine-1-carboxylate], at human GPR119 [1], the EC50 was 56 nM and 52 nM; the “Intrinsic Activity* (cAMP)” value was 109%; the Emax is 107%. In addition, at human GPR119 [2], the Ki is 462 nM. Also, on human GPR119 [3] (setting [5]), the EC50 was found to be 155 nM. Further, the Emax on human GPR119 [3] (setting [6]) came out at 92%.
As to `CC1(OC(=O)N2CCC(n3ncc(COc4ccc(C(N)=O)cc4F)c3C#N)CC2)CC1` [Example 15, 1-Methylcyclopropyl 4-{4-[(4-carbamoyl-2-fluorophenoxy)methyl]-5-cyano-1H-pyrazol-1-yl}piperidine-1-carboxylate], on human GPR119 [1], the EC50 is 198 nM and 106 nM and 129 nM; the “Intrinsic Activity* (cAMP)” value was 102% and 112% and 131%. Further, at human GPR119 [2], the Ki is 268 nM and 160 nM. Besides, the EC50 at human GPR119 [3] (setting [5]) was 63 nM. For the same compound, the Emax on human GPR119 [3] (setting [6]) is 104%.
On to `CC(C)OC(=O)N1CCC(n2ncc(COc3ccc(C#N)cc3F)c2C#N)CC1` [Example 8, Isopropyl 4-{5-cyano-4-[(4-cyano-2-fluorophenoxy)methyl]-1H-pyrazol-1-yl}piperidine-1-carboxylate], for which, at human GPR119 [4], the EC50 was 20 nM and 39 nM and 64 nM; the “Intrinsic Activity* (B-lactamase)” value is 102% and 94%; the Emax came out at 100%. Further, on human GPR119 [1], the 50% effective concentration (EC50) was 9 nM and 6 nM and 7 nM; the “Intrinsic Activity* (cAMP)” value was 75% and 74%; the Emax came to 89%. Further, on human GPR119 [3] (setting [5]), the EC50 is 16 nM. For the same compound, at human GPR119 [3] (setting [6]), the Emax came to 80%.
Consider `CC(C)OC(=O)N1CCC(n2ncc(COc3ccc(-n4cnnn4)cc3F)c2C#N)CC1` [Example 3, Isopropyl 4-(5-cyano-4-{[2-fluoro-4-(1H-tetrazol-1-yl)phenoxy]-methyl}-1H-pyrazol-1-yl)piperidine-1-carboxylate], for which the EC50 was 8 nM and 11 nM and 6 nM on human GPR119 [4]; 4 nM at human GPR119 [3] (setting [5]). Moreover, on human GPR119 [4], the “Intrinsic Activity* (B-lactamase)” value was 105% and 96%. Also, the values for the Emax on human GPR119 [4], at human GPR119 [1] and at human GPR119 [3] (setting [6]) were 98%, 86% and 111%, respectively. Further, the “Intrinsic Activity* (cAMP)” value on human GPR119 [1] was 91% and 74% and 79% and 84%. Moreover, the Ki at human GPR119 [2] was 5 nM and 10 nM and 37 nM.
`CC(C)OC(=O)N1CCC(n2ncc(COc3ccc(-c4nccn4C)cc3F)c2C#N)CC1` [Example 33, Isopropyl 4-(5-cyano-4-{[2-fluoro-4-(1-methyl-1H-imidazol-2-yl)phenoxy]methyl}-1H-pyrazol-1-yl)piperidine-1-carboxylate]: at human GPR119 [1], the EC50 is 244 nM and 274 nM; the “Intrinsic Activity* (cAMP)” value worked out at 92%; the Emax came out at 85%. On human GPR119 [3] (setting [7]), the EC50 is 1330 nM and the Emax is 100%.
Consider `CC1(OC(=O)N2CCC(n3ncc(COc4cccc(F)c4F)c3C#N)CC2)CC1` [Example 14, 1-Methylcyclopropyl 4-{5-cyano-4-[(2,3-difluorophenoxy)methyl]-1H-pyrazol-1-yl}piperidine-1-carboxylate], for which, on human GPR119 [1], the EC50 was 436 nM and 494 nM; the “Intrinsic Activity* (cAMP)” value is 78%; the Emax came out at 74%. The Ki on human GPR119 [2] is 723 nM. Also, the EC50 at human GPR119 [3] (setting [5]) came to 495 nM. At human GPR119 [3] (setting [6]), the Emax is 109%.
For `CC1(OC(=O)N2CCC(n3ncc(COc4ccc(C#N)cc4)c3C#N)CC2)CC1` [Example 17, 1-Methylcyclopropyl 4-(5-cyano-4-((4-cyanophenoxy)methyl)-1H-pyrazol-1-yl)piperidine-1-carboxylate], at human GPR119 [1], the EC50 is 39 nM and 26 nM; the “Intrinsic Activity* (cAMP)” value was found to be 91%; the Emax is 95%. Besides, on human GPR119 [3] (setting [5]), the EC50 is 161 nM. Further, on human GPR119 [3] (setting [6]), the Emax stood at 67%.
As to `CC1(OC(=O)N2CCC(n3ncc(COc4ccc(C(N)=O)cc4)c3C#N)CC2)CC1` [Example 16, 1-Methylcyclopropyl 4-{4-[(4-carbamoylphenoxy)methyl]-5-cyano-1H-pyrazol-1-yl}piperidine-1-carboxylate], at human GPR119 [1], the EC50 was 204 nM and 165 nM and 316 nM; the “Intrinsic Activity* (cAMP)” value was 102% and 119%; the Emax was determined as 105%. Also, at human GPR119 [3] (setting [7]), the EC50 was 420 nM and the Emax was 100%. Besides, the EC50 at human GPR119 [3] (setting [5]) is 472 nM.
With `CC1(OC(=O)N2CCC(n3ncc(COc4cc(F)ccc4F)c3C#N)CC2)CC1` [Example 13, 1-Methylcyclopropyl 4-{5-cyano-4-[(2,5-difluorophenoxy)methyl]-1H-pyrazol-1-yl}piperidine-1-carboxylate], on human GPR119 [1], the EC50 was 180 nM and 112 nM; the “Intrinsic Activity* (cAMP)” value came to 87%; the Emax is 95%. Further, the Ki on human GPR119 [2] is 149 nM. The EC50 at human GPR119 [3] (setting [5]) stood at 217 nM. The Emax on human GPR119 [3] (setting [6]) came to 119%.
